Patent publication US9067894B1, “Compound, composition, and method of activating GIRK potassium channel and use of same for treating conditions of interest” (Vanderbilt University, priority 2013, dated 2015)

Columns and labels:
Type in all cases: cell-based
GIRK1/4 = biological target: T1, GIRK1/4 (Homo sapiens, UniProt P48544+P48549); experiment: Thallium flux assay protocol (Examples 2 and 3), GIRK1/GIRK4 HEK-293 cells; details: for GIRK1/4 efficacy (activator): standardized to 2 (ML297) = 100%; for EC50: triplicate determinations
T1 construct: expressed in transfected cells; host or cells: HEK-293
T1 sequence (P48549 1-501): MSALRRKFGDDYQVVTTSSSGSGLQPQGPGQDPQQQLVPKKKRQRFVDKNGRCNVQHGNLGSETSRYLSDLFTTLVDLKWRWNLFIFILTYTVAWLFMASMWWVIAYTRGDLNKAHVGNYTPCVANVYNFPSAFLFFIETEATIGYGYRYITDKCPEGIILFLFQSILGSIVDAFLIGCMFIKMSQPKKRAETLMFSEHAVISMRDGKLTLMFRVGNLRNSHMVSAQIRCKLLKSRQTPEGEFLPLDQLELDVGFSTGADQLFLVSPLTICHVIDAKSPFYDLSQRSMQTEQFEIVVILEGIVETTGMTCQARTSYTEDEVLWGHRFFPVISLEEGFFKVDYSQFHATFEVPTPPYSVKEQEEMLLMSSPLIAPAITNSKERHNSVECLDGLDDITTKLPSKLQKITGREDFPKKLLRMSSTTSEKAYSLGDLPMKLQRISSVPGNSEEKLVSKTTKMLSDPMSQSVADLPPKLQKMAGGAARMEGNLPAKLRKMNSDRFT
T1 sequence (P48544 1-419): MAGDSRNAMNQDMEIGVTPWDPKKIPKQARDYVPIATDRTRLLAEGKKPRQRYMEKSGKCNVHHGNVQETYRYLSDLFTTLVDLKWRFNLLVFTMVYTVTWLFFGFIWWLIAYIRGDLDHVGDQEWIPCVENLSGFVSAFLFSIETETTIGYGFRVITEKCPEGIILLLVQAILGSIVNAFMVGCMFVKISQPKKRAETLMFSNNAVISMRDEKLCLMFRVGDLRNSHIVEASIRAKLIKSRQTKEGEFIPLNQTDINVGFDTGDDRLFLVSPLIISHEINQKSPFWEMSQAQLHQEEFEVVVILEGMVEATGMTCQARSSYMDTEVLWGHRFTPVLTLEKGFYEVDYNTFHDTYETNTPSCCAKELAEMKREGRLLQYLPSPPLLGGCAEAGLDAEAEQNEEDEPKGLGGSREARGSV
Method: (§1) Compounds were dissolved in DMSO, transferred to 384-well polypropylene plates, and serially diluted in DMSO using and Agilent Bravo (11-points, threefold dilutions). Serially diluted plates were dispensed to daughter plates using a Labcyte Echo555 and diluted to twofold over their target assay concentration with 20 mM HEPES-buffered (pH 7.4) Hanks Balanced Salt Solution (HBSS), hereafter referred to as Assay Buffer, using a Thermo Fisher Combi. Twenty-thousand HEK-293 cells/well stably transfected with the ion channel subunits of interest (e.g., GIRK1/GIRK2, GIRK1/GIRK4) were plated into 384-well, black-walled, clear-bottom, amine-coated coated plates in 20 LL/well alpha-minimal essential medium (MEM) supplemented with 10% (v/v) fetal bovine serum and incubated overnight in a 5% CO2 incubator at 37° C. Cell culture medium was removed from cell plates and replaced with 20 LL/well Assay Buffer. Twenty microliters/well of 0.5 LM of the thallium-sensitive dye, Thallos-AM (TEFlabs, Austin Tex.) in Assay Buffer was added to cell plates. Cell plates were incubated for 60 min at room temperature and then dye-loading solution was removed from cell plates and replaced with 20 LL/well Assay Buffer. Dye loaded and washed cell plates were transferred to a Hamamatsu FDSS 6000 and a double-addition protocol was initiated. After 10s, 20 LL/well of 20 LM test compound in 0.2% DMSO and Assay Buffer was added. After 4 min 10 LL/well of a 5× sodium bicarbonate-based thallium stimulus buffer (20 mM HEPES pH 7.4, 135 mM NaHCO3, 2 mM CaSO4, 1 mM MgSO4, 5 mM glucose, 12 mM Tl2SO4) was added and 2 more minutes of data collection followed. Fluorescence data were collected at 1 Hz. Data analysis: Waveform signals (fluorescence intensity vs time normalized by dividing each fluorescence value (F) by the initial fluorescence value for each trace (F0)) were reduced to single values by subtracting the average normalized waveform from vehicle control wells from each wave on the plate followed by obtaining the slope of the change in fluorescence immediately after the addition of the thallium stimulus. Slope values were normalized as a percentage of the slope obtained by the addition of a maximally effective concentration of the GIRK activator, ML297 (e.g., an efficacy value of 100% means that the compound's maximum apparent efficacy equals that of ML297). Curve fits for normalized slope values were obtained using a four-parameter logistic equation in the Excel add-in, XLfit.

GIRK1/2 [1] = biological target: T2, GIRK1/2 (Homo sapiens, UniProt P48051+P48549); experiment: Thallium flux assay protocol (Examples 2 and 3), GIRK1/GIRK2 HEK-293 cells; set-up: expressed in transfected cells; host or cells: HEK-293; details: for GIRK1/2 efficacy (activator): standardized to 2 (ML297) = 100%; for EC50: triplicate determinations
T2 sequence (P48549 1-501): T1 sequence (P48549 1-501)
T2 sequence (P48051 1-423): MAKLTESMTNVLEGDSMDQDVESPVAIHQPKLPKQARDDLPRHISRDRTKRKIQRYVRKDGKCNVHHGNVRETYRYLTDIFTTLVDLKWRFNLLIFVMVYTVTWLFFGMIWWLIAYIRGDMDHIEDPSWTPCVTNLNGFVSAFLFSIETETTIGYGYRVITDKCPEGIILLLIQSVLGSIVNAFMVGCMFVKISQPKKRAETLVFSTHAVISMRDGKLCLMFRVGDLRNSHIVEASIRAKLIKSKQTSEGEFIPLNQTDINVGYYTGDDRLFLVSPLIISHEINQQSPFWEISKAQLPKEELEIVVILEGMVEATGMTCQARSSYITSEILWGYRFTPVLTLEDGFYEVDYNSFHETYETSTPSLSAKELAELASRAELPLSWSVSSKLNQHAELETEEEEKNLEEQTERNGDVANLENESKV
Method: as §1, with “Slope values were normalized as a percentage of the slope obtained by the addition of a maximally effective concentration of the GIRK activator, ML297 (e.g., an efficacy value of 100% means that the compound's maximum apparent efficacy equals that of ML297).” left out

GIRK1/2 [2] = biological target: T2, GIRK1/2; experiment: Thallium flux assay, HEK-293 cells expressing GIRK1/2; set-up: host or cells: HEK-293; details: confirmed GIRK activator of GIRK1/2, HTS hit; read-out: EC50
From the text: Cell Line Construction and Cell Culture. HEK-293 cells co-expressing human GIRK1/2 and rat mGlu8 were generated as previously described (Niswender et al., 2008). A HEK-293 cell line (ATCC, Manassas, Va.) expressing human GIRK1 and human GIRK2 was constructed by transfecting HEK-293 cells with GIRK1 and GIRK2 (Origene, Rockville, Md.) cloned into the pBudCE4.1 vector (Life Technologies, Carlsbad, Calif.) using FuGene 6 (Promega, Madison, Wis.) transfection reagent. Unless otherwise noted, other ion channel-expressing cells were prepared by transfecting HEK-293 cells with individual or combinations of subunits: GIRK1, pCMV6-A-BSD; GIRK2, pCMV6-A-puro; GIRK3, pCMV6-A-hygro; GIRK4, pCMV6-A-AC; Kv7.4, pIRESneo3. The Kir2.1 and hERG-expressing cell lines were made by transfecting T-REx-293 cells (Life Technologies, Carlsbad, Calif.) with Kir2.1 and Kv11.1, respectively, cloned into pcDNA5TO. Monoclonal cell lines were produced by limiting-dilution cloning of antibiotic-resistant cells and functional selection using the thallium flux assay described below. Unless otherwise noted, cells were maintained in Minimal Essential Medium, Alpha Medium (Mediatech, Manassas, Va.) supplemented with 10% fetal bovine serum (Sigma-Aldrich, Saint Louis, Mo.) and GlutaGro (Mediatech, Manassas, Va.), referred to henceforth as cell culture medium. […]

| Compound | GIRK1/4 efficacy (activator) (GIRK1/4) [%] | GIRK1/2 efficacy (activator) (GIRK1/2 [1]) [%] | EC50 (GIRK1/4; Table 4, analogs 8) [µM] | further results |
| --- | --- | --- | --- | --- |
| Cc1ccc(NC(=O)Cc2ccccc2Br)cc1S(=O)(=O)N(C)C [3a] | 114 | 108 |  |  |
| COc1ccc(OC)c(NC(=O)Nc2ccc(C)c(S(=O)(=O)N(C)C)c2)c1 [6i] |  |  |  | activity at GIRK1/4 (in words) (GIRK1/4): inactive; activity at GIRK1/2 (in words) (GIRK1/2 [1]): inactive |
| Cc1cc(NC(=O)Nc2ccc(F)c(F)c2)n(Cc2ccccc2)n1 [5d] | 99 | 87 |  |  |
| Cc1cccc(NC(=O)Cc2ccccc2Cl)c1 [8i] |  |  |  | activity at GIRK1/4 (in words) (GIRK1/4): inactive; activity at GIRK1/2 (in words) (GIRK1/2 [1]): inactive |
| Cc1cc(NC(=O)Nc2ccccc2)n(-c2ccccc2)n1 [CID736191] |  |  |  | EC50 (GIRK1/2 [2]): ~1 µM |
| Cc1ccc(NC(=O)Cc2ccccc2Cl)cc1S(=O)(=O)N(C)C [compound 3] | 104 | 110 |  |  |
| Cc1ccc(NC(=O)Nc2cccc(C#N)c2)cc1S(=O)(=O)N(C)C [6j] |  |  |  | EC50 (GIRK1/4; Table 3, analogs 6 (ureas)): 3.3 µM |
| Cc1ccc(NC(=O)Nc2ccc(C(F)(F)F)cc2)cc1S(=O)(=O)N(C)C [6h] |  | 26 |  | EC50 (GIRK1/2 [1]; Table 3, analogs 6 (ureas)): 15 µM |

More lines, main results first:

| GIRK1/4 efficacy (activator) (GIRK1/4) [%] | GIRK1/2 efficacy (activator) (GIRK1/2 [1]) [%] | EC50 (GIRK1/4; Table 4, analogs 8) [µM] | Compound | further results |
| --- | --- | --- | --- | --- |
|  |  | > 10 | O=C(Cc1ccccc1Cl)Nc1cc(Cl)cc(C(F)(F)F)c1 [8d] | EC50 (GIRK1/2 [1]; Table 4, analogs 8): > 10 µM |
|  |  | 2.7 | CC(C)(C)c1cccc(NC(=O)Cc2ccccc2Cl)c1 [8b] | EC50 (GIRK1/2 [1]; Table 4, analogs 8): 5.9 µM |
|  |  | 7.8 | O=C(Cc1ccccc1Cl)Nc1cccc(OC(F)F)c1 [8c] |  |
| 22 |  | 1.8 | O=C(Cc1ccccc1Cl)Nc1cccc(Cl)c1 [8g] | activity at GIRK1/4 (in words) (GIRK1/4): selective, partial GIRK1/4 activators |
| 17 |  | 0.24 | O=C(Cc1ccccc1Cl)Nc1ccc(Cl)c(C(F)(F)F)c1 [8e] | activity at GIRK1/2 (in words) (GIRK1/2 [1]): inactive |
